US7494996B2 (priority 2000, dated 2009)

How the values were obtained:
Sphaerotheca fuliginea = test: Cucumber Powdery Mildew (CPM) protectant test in the greenhouse; format: in vivo; conditions: 300 g/ha, 100 is total disease control, 0 is no disease control
Summary of the method: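 Protectant format: one day after spraying with test compound (A/M/W 1:1:2), cotyledon-plus-one-leaf cucumber plants were misted with Sphaerotheca spores at 2×10^5/ml. Greenhouse disease development; percent control scored at day 7 (100 = total, 0 = none).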

Pyricularia oryzae = test: whole plant or invertebrate; format: in vivo; conditions: protectant, 300 g/ha, greenhouse; 100 is total disease control, 0 is no disease control
Southern Armyworm = test: Protocol 1 Southern Armyworm (AW) foliar spray test; format: in vivo, Spodoptera eridania; conditions: Protocol 1, DOSE 150
Description: (§1) A test solution containing 1250 parts per million (ppm) was prepared by dissolving the test compound in […] of a second solvent (acetone: water, 1:1) to give an acetone:water: methanol system of 50: 40:10.
(§2) The enclosed spraying chamber consisted of a single spray nozzle mounted on a boom moving at a fixed speed and distance over stationary targets. The vertical distance from the nozzle tip to the targets was adjusted to give rates varying from 150 g/ha to 600 g/ha
(§3) Individual fully expanded primary lima bean (Phaseolus limensis) leaves were placed bottom side up on moistened pieces of filter paper in Petri dishes. The leaves were sprayed with the test solutions and allowed to dry. The dishes were infested with 5 third instar larvae of the southern armyworm, covered with the lids, and held at 27° C. Armyworm control was rated by visual inspection after 48 hours. […] A rating of 0 indicated no dead larvae and normal feeding. Intermediate control was indicated by intermediate ratings.

Mexican Bean Beetle = test: Protocol 1 Mexican Bean Beetle (BB) foliar spray test; format: in vivo, Epilachna verivestis; conditions: Protocol 1, DOSE 150; control rated after 48 hours (100 = all larvae dead)
Description: as §1, §2
as §3, with “mexican bean beetle,” for “southern armyworm,”, “Bean beetle” for “Armyworm”

Two-Spotted Spider Mite = test: Protocol 1 Two-Spotted Spider Mite (MTA) foliar spray test; format: in vivo, Tetranychus urticae; conditions: Protocol 1, DOSE 150; percentage of mites killed 1-day post-treatment
Description: as §1, §2
A pad of moistened cotton was placed in a Petri dish. A 1-inch square section cut from a fully expanded primary lima bean (Phaseolus limensis) leaf was positioned bottom side up on the moist cotton. The leaf square was infested with approximately 50 adult female mites. The dishes were sprayed with the test solutions and held at 27° C. for mortality determination 1-day post-treatment. The percentage of mites killed were rated from 100% (all dead) to 0% (all alive).

Structure (SMILES) | Cucumber Powdery Mildew (CPM) protectant fungicide data, percent control (Sphaerotheca fuliginea) | Rice Blast (RB) protectant fungicide data, percent control (Pyricularia oryzae) | AW (Southern Armyworm) | BB (Mexican Bean Beetle) | MTA (Two-Spotted Spider Mite)
COc1cccc(-c2ncc(=O)n(CC(F)(F)F)n2)c1 [Compound 252] | 0 percent control | 85 percent control | 0 | 100 | 50%
Cc1c(Cl)cc(-c2ncc(=O)n(CC(F)(F)F)n2)cc1Cl [Compound 253] | 50 percent control | 100 percent control | 0 | 0 | 100%
CCCC(C)n1nc(-c2ccc(Cl)cc2)ncc1=O (centres unmarked) [Compound 254] | 0 percent control | 95 percent control | 0 | 100 | 100%
CCC(C)n1nc(C2CCCCC2)ncc1=O (centres unmarked) [Compound 255] | 0 percent control | 50 percent control | 0 | 90 | 100%
